Measurements reported in patent US9400283B2, “In vitro method using human skin for evaluating the influence of ABC transporters” (GALDERMA RESEARCH & DEVELOPMENT, priority 2011, dated 2016).
Values belong to the molecule of their own block, whether it stands above or below them.

Tests used:
human skin samples [1] = experiment: In vitro cutaneous absorption of LTC4 (receptor fluid, liquid scintillation counting); type: in vitro ADME; conditions: 68.5 nM LTC4 10 μL/cm2, 6 hours
Method: Tritium labeled LTC4 was used. The concentration of the LTC4 solution used was 68.5 nM (0.01 mCi/mL).
At the end of the period of treatment with the inhibitor, the skin samples, both the control samples and those treated with the inhibitor, were treated with the LTC4 solution. […] The duration of the treatment with LTC4 was 6 hours.
The in vitro LTC4 skin absorption experiments were performed with fresh skin samples originating from three different donors. The experiments were performed in 6-well Transwell plates, with a 1 cm^2 area of treated skin and receptor fluid volumes of 1.5 mL. The treatment volume for the skin surface was 10 μL, corresponding to 0.69 […] and 222 000 dpm. Three different experiments were performed with skin samples originating from three different donors. In each experiment, each condition was performed in triplicate (N=9 in total).

human skin samples [2] = experiment: Cutaneous distribution of LTC4 by autoradiography of skin sections; type: in vitro ADME
Method: The distribution of Vinblastine in the skin was analyzed by autoradiography. Skin samples were placed in a tissue holder and freeze-mounted in cryomount embedding medium. The frozen blocks were sectioned into slices 8-10 μm thick, perpendicular to the epidermal surface in a cryomicrotome (Thermo Electron). The sections were collected on glass slides and dried. Cryosections were placed on a Fuji imaging plate type Bas-III (20×40 cm) in a Fujix Bas cassette 2040 during 24 hours to 5 days. The exposed plate was scanned with a Bio-Imaging analyzer (Fujix BAS 2000). The scanned images were analyzed using TINA software.
The distribution of the LTC4 in the skin was analyzed by autoradiography. The experimental conditions are identical to those described previously for vinblastine.

human skin samples [3] = experiment: Skin distribution of Rhodamine 123 by epifluorescence microscopy; type: in vitro ADME; conditions: skin samples treated with Verapamil, data not shown
[4] = system: ex vivo human skin samples; experiment: In vitro skin absorption of vinblastine (receptor fluid, liquid scintillation counting); conditions: for vinblastine skin absorption (amount in receptor fluid): 16 hours

cutaneous absorption of LTC4, share of the applied dose (human skin samples [1]): about 1.7 % of the applied dose
SMILES: CCCCC/C=C\C\C=C/C=C/C=C/[C@@H](SC[C@H](NC(=O)CC[C@H](N)C(=O)O)C(=O)NCC(=O)O)[C@@H](O)CCCC(=O)O [LTC4, leukotriene-C4]
cutaneous distribution of LTC4 (autoradiography signal) (human skin samples [2]; skin sections without treatment with the inhibitor): a radioactive signal related to LTC4 is observed in the uppermost part of the skin section corresponding to the epidermis

SMILES: COc1ccc(CCN(C)CCCC(C#N)(c2ccc(OC)c(OC)c2)C(C)C)cc1OC (stereo not shown) [verapamil, Verapamil]
effect of Verapamil on Rhodamine 123 fluorescence intensity in skin sections (human skin samples [3]): No difference in fluorescence intensity

SMILES: CN(C)C(=O)CCSC(SCCC(=O)O)c1cccc(/C=C/c2ccc3ccc(Cl)cc3n2)c1 (stereo not shown) [MK571]
effect of MK571 on cutaneous distribution of LTC4 (autoradiography signal) (human skin samples [2]; skin treated with the inhibitor MK571): appreciable increase in the intensity of the signal related to LTC4

vinblastine skin absorption (amount in receptor fluid) ([4]; dermarolled skin (32 roller passages)): 0.6 nmol | increase of vinblastine skin absorption by skin perforation by dermaroller ([4]; dermarolled versus intact skin): about 200 times | vinblastine skin absorption, share of the applied dose ([4]; intact human skin, 2.5 mM [3H]-vinblastine 10 μL/cm2, 16 hours, receptor fluid): 0.001 % of the applied dose | vinblastine skin absorption (amount in receptor fluid) ([4]; intact human skin): 0.003 nmol | increase of vinblastine skin absorption by tape stripping ([4]; stripped versus intact skin): about 20 times | vinblastine skin absorption (amount in receptor fluid) ([4]; tape stripped skin (30 stripes)): 0.07 nmol
SMILES: CC[C@]1(O)C[C@@H]2CN(CCc3c([nH]c4ccccc34)[C@@](C(=O)OC)(c3cc4c(cc3OC)N(C)[C@H]3[C@@](O)(C(=O)OC)[C@H](OC(C)=O)[C@]5(CC)C=CCN6CC[C@]43[C@@H]65)C2)C1 [vinblastine, Vinblastine]
